Non-standard residues stand in square brackets, D forms with d. Residues, ends and D or L forms follow the SMILES beside them. ξ: configuration not given here. ξNMeBip(2'-Et,4'-OMe) = CCc1cc(OC)ccc1-c1ccc(CC(NC)C(=O)O)cc1; Leu(5,5,5,5',5',5'-F6) = N[C@@H](CC(C(F)(F)F)C(F)(F)F)C(=O)O; ξBip(2'-Et-4'-OMe) = CCc1cc(OC)ccc1-c1ccc(CC(N)C(=O)O)cc1; ξNva(5-(3,5-Me2-Ph)) = Cc1cc(C)cc(CCCC(N)C(=O)O)c1; ξNva(5-(4-Cl-2-MePh)) = Cc1cc(Cl)ccc1CCCC(N)C(=O)O; ξNMeNva(5-(2-F-Ph)) = CNC(CCCc1ccccc1F)C(=O)O; ξNva(5-(3-Cl-Ph)) = NC(CCCc1cccc(Cl)c1)C(=O)O; ξαMePhe(2-F) = CC(N)(Cc1ccccc1F)C(=O)O; NMeD = CN[C@@H](CC(=O)O)C(=O)O; aThr = C[C@H](O)[C@H](N)C(=O)O; Aib = CC(C)(N)C(=O)O
Key:
Type in all cases: in vitro ADME
DPP IV = DPP IV (Homo sapiens, UniProt P27487); assay: Stability against DPP IV enzyme; conditions: 37° C.; for % degradation of peptidomimetics in 24 h when incubated with DPP-IV enzyme: 2 μM peptidomimetic; for half-life at 2 μM: DPP IV enzyme, pH 7.8, 2 μM peptidomimetic, read-out: half-life (t1/2) when incubated with DPP-IV enzyme
Experimental: (§1) Reactions were terminated by the addition of TFA/H2O (15 mL, 10% (v/v)). […] The column was equilibrated with TFA/H20, at a flow rate of 1 mL/min.

[1] = Stability in human plasma; conditions: 2 μM peptidomimetic, pooled human plasma, 37° C.; for half-life at 2 μM: pH 7.8, read-out: half-life (t1/2) when incubated with human plasma
Experimental: as §1

[2] = Stability in simulated gastric fluid; conditions: 2 μM peptidomimetic, simulated gastric fluid pH 1.5, 37° C.; for half-life at 2 μM: read-out: half-life (t1/2) when incubated with simulated gastric fluid
Experimental: as §1

[3] = Stability in simulated intestinal fluid; conditions: 2 μM peptidomimetic, simulated intestinal fluid pH 7.5, 37° C.; for half-life at 2 μM: read-out: half-life (t1/2) when incubated with simulated intestinal fluid
Experimental: as §1

[4] = Stability in liver microsomes; conditions: 2 μM peptidomimetic, human liver microsomes, 37° C.; for half-life at 2 μM: pH 7.8, read-out: half-life (t1/2) when incubated with liver microsomes
Experimental: as §1

Chain of DPP IV (P27487 whole entry, species assumed): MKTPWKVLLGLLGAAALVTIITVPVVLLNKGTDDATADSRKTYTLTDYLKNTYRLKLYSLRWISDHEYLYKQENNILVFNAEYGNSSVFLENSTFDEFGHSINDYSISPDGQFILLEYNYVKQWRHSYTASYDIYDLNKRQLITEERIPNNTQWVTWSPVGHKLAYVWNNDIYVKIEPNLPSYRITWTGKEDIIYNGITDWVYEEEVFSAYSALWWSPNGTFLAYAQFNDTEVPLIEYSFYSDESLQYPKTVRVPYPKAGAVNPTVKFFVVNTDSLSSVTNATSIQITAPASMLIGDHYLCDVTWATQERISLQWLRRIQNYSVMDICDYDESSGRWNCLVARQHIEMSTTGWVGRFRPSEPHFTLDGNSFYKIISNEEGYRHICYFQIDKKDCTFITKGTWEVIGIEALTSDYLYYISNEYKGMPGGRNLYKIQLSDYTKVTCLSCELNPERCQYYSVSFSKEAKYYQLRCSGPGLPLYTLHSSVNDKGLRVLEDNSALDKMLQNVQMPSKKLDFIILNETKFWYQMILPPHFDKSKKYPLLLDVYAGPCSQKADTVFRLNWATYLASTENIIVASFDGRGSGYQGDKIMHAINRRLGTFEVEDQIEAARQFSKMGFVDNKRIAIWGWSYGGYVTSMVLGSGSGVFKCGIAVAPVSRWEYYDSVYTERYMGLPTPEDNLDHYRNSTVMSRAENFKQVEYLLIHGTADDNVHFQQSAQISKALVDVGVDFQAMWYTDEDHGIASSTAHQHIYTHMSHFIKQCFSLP

Row | Compound | % degradation of peptidomimetics in 24 h when incubated with DPP-IV enzyme (DPP IV) [%] | half-life at 2 μM (DPP IV) [h] | % degradation of peptidomimetics in 24 h when incubated with human plasma [1] [%] | half-life at 2 μM [1] [h] | half-life (t1/2) when incubated with simulated gastric fluid [2] | % degradation of peptidomimetics in 24 h when incubated with simulated gastric fluid [2] [%] | half-life (t1/2) when incubated with simulated intestinal fluid [3] | % degradation of peptidomimetics in 24 h when incubated with simulated intestinal fluid [3] [%] | % degradation of peptidomimetics in 24 h when incubated with liver microsomes [4] [%] | half-life at 2 μM [4] [h] | half-life at 2 μM [2] [h] | half-life at 2 μM [3] [h] | half-life (t1/2) when incubated with liver microsomes [4] | half-life (t1/2) when incubated with human plasma [1]
1 | CCc1cc(OC)ccc1-c1ccc(CC(NC(=O)[C@H](CC(=O)O)NC(=O)[C@H](CO)NC(=O)[C@@H](NC(=O)[C@H](Cc2ccccc2)NC(=O)[C@@H](NC(=O)CNC(=O)[C@H](CCC(N)=O)NC(=O)C2(NC(=O)[C@@H](N)Cc3c[nH]cn3)CC2)[C@@H](C)O)[C@@H](C)O)C(=O)NC(CCCc2ccc(F)cc2F)C(N)=O)cc1 (single isomer, unassigned) [compound 70] | 70 | 9 | 71 | 8 | (8) h | 14 | (6) h | 40 | 78 | 1 | – | – | – | –
2 | CCc1cc(OC)ccc1-c1ccc(CC(NC(=O)[C@H](CC(=O)O)NC(=O)[C@H](CO)NC(=O)[C@@H](NC(=O)[C@H](Cc2ccccc2)NC(=O)[C@@H](NC(=O)CNC(=O)[C@H](CCC(N)=O)NC(=O)C2(C)CCCN2C(=O)[C@@H](N)Cc2c[nH]cn2)[C@@H](C)O)[C@@H](C)O)C(=O)NC(CCCc2ccc(Cl)cc2C)C(N)=O)cc1 (single isomer, unassigned) [compound 12] | 76 | 9 | 78 | 8 | (8) h | 14 | (6) h | 43 | 80 | 1 | – | – | – | –
3 | CCc1cc(OC)ccc1-c1ccc(CC(NC(=O)[C@H](CC(=O)O)NC(=O)[C@H](CO)NC(=O)[C@@H](NC(=O)[C@H](Cc2ccccc2)NC(=O)[C@@H](NC(=O)CNC(=O)[C@H](CCC(N)=O)NC(=O)[C@H](CO)NC(=O)[C@@H](N)Cc2c[nH]cn2)[C@@H](C)O)[C@@H](C)O)C(=O)NC(CCCc2ccc(Cl)cc2C)C(N)=O)cc1 (some centres unmarked) [compound 8] (H-HSQGTFTSD[ξBip(2'-Et-4'-OMe)][ξNva(5-(4-Cl-2-MePh))]-NH2) | 00 | > 24 | 00 | > 24 | – | 00 | – | 00 | 35 | – | > 24 | > 24 | (5) h | –
4 | CCc1cc(OC)ccc1-c1ccc(CC(CNC(CCCc2ccccc2)C(N)=O)NC[C@H](CC(=O)O)NC(=O)[C@H](CO)NC(=O)[C@@H](NC(=O)C(C)(Cc2ccccc2F)NC(=O)[C@@H](NC(=O)CNC(=O)[C@H](CCC(N)=O)NC(=O)C(C)(C)NC(=O)[C@@H](N)Cc2c[nH]cn2)[C@H](C)O)[C@H](C)O)cc1 (single isomer, unassigned) [compound 201] | 00 | > 24 | 00 | > 24 | – | 43 | – | 00 | 84 | 2 | 4 | > 24 | – | –
5 | CCc1cc(OC)ccc1-c1ccc(CC(C(=O)N(C)C(CCCc2ccccc2F)C(N)=O)N(C)C(=O)[C@H](CC(=O)O)N(C)C(=O)[C@H](CO)NC(=O)[C@@H](NC(=O)C(C)(Cc2ccccc2F)NC(=O)[C@@H](NC(=O)CNC(=O)[C@H](CC(C(F)(F)F)C(F)(F)F)NC(=O)C(C)(C)NC(=O)[C@@H](N)Cc2c[nH]cn2)[C@H](C)O)[C@H](C)O)cc1 (some centres unmarked) [compound 221] (H-H[Aib][Leu(5,5,5,5',5',5'-F6)]G[aThr][ξαMePhe(2-F)][aThr]S[NMeD][ξNMeBip(2'-Et,4'-OMe)][ξNMeNva(5-(2-F-Ph))]-NH2) | 00 | > 24 | 00 | > 24 | – | 00 | – | 00 | 32 | – | > 24 | > 24 | (5) h | –
6 | CCc1cc(OC)ccc1-c1ccc(CC(NC(=O)[C@H](CC(=O)O)NC(=O)[C@H](CO)NC(=O)[C@@H](NC(=O)[C@H](Cc2ccccc2)NC(=O)[C@@H](NC(=O)CNC(=O)[C@H](CCC(N)=O)NC(=O)[C@H](C)NC(=O)[C@@H](N)Cc2c[nH]cn2)[C@@H](C)O)[C@@H](C)O)C(=O)NC(CCCc2cc(C)cc(C)c2)C(N)=O)cc1 (some centres unmarked) [compound 14] (H-HAQGTFTSD[ξBip(2'-Et-4'-OMe)][ξNva(5-(3,5-Me2-Ph))]-NH2) | 74 | 9 | 75 | 8 | (8) h | 12 | (6) h | 46 | 83 | 1 | – | – | – | –

Other lines, results leading:

Row | % degradation of peptidomimetics in 24 h when incubated with DPP-IV enzyme (DPP IV) [%] | half-life at 2 μM (DPP IV) [h] | % degradation of peptidomimetics in 24 h when incubated with human plasma [1] [%] | half-life at 2 μM [1] [h] | half-life (t1/2) when incubated with simulated gastric fluid [2] | % degradation of peptidomimetics in 24 h when incubated with simulated gastric fluid [2] [%] | half-life (t1/2) when incubated with simulated intestinal fluid [3] | % degradation of peptidomimetics in 24 h when incubated with simulated intestinal fluid [3] [%] | % degradation of peptidomimetics in 24 h when incubated with liver microsomes [4] [%] | half-life at 2 μM [4] [h] | half-life at 2 μM [2] [h] | half-life at 2 μM [3] [h] | half-life (t1/2) when incubated with liver microsomes [4] | half-life (t1/2) when incubated with human plasma [1] | Compound
7 | 70 | – | 71 | – | – | 100 | – | 100 | 100 | 0.5 | 0.5 | 0.5 | – | (9) h | CCc1cc(OC)ccc1-c1ccc(CC(NC(=O)[C@H](CC(=O)O)NC(=O)[C@H](CO)NC(=O)[C@@H](NC(=O)C(C)(Cc2ccccc2F)NC(=O)[C@@H](NC(=O)CNC(=O)[C@H](CC(C(F)(F)F)C(F)(F)F)NC(=O)C(C)(C)NC(=O)[C@@H](N)Cc2c[nH]cn2)[C@H](C)O)[C@H](C)O)C(=O)NC(CCCc2ccccc2F)C(N)=O)cc1 (some centres unmarked) [compound 229]
8 | 74 | – | 75 | – | – | 100 | – | 100 | 100 | 0.5 | 0.5 | 0.5 | – | (9) h | CCc1cc(OC)ccc1-c1ccc(CC(NC(=O)[C@H](CC(=O)O)NC(=O)[C@H](CO)NC(=O)[C@@H](NC(=O)C(C)(Cc2ccccc2F)NC(=O)[C@@H](NC(=O)CNC(=O)[C@H](CC(C(F)(F)F)C(F)(F)F)NC(=O)C(C)(C)NC(=O)[C@@H](N)Cc2c[nH]cn2)[C@H](C)O)[C@@H](C)O)C(=O)NC(CCCc2ccccc2)C(N)=O)cc1 (some centres unmarked) [compound 226]
9 | 00 | > 24 | 00 | > 24 | – | 00 | – | 00 | 35 | – | > 24 | > 24 | (5) h | – | CCc1cc(OC)ccc1-c1ccc(CC(NC(=O)[C@H](CC(=O)O)NC(=O)[C@H](CO)NC(=O)[C@@H](NC(=O)C(C)(Cc2ccccc2F)NC(=O)[C@@H](NC(=O)CNC(=O)[C@H](CC(C(F)(F)F)C(F)(F)F)NC(=O)C(C)(C)NC(=O)[C@@H](N)Cc2c[nH]cn2)[C@@H](C)O)[C@@H](C)O)C(=O)NC(CCCc2cccc(Cl)c2)C(N)=O)cc1 (some centres unmarked) [compound 236] (H-H[Aib][Leu(5,5,5,5',5',5'-F6)]GT[ξαMePhe(2-F)]TSD[ξBip(2'-Et-4'-OMe)][ξNva(5-(3-Cl-Ph))]-NH2)
10 | 00 | > 24 | 00 | > 24 | – | 00 | – | 00 | 32 | – | > 24 | > 24 | (5) h | – | CCc1cc(OC)ccc1-c1ccc(CC(CNC(CCCc2ccccc2)C(N)=O)NC(=O)[C@H](CC(=O)O)NC(=O)[C@H](CO)NC(=O)[C@@H](NC(=O)C(C)(Cc2ccccc2F)NC(=O)[C@@H](NC(=O)CNC(=O)[C@H](CC(C(F)(F)F)C(F)(F)F)NC(=O)C(C)(C)NC(=O)[C@@H](N)Cc2c[nH]cn2)[C@H](C)O)[C@H](C)O)cc1 (some centres unmarked) [compound 215]

From US8883963B2 (Cadila Healthcare Limited, priority 2007, dated 2014)
